Tested on: Phosphorylation of STAT6 in human A549 cells
Test: Phosphorylated STAT6 (pSTAT6) flow cytometry assay in human A549 cells
Format: cell-based
Conditions: listed as I-390, read-out: STAT6 IL4 pSTAT6 assay in A549 cells: Average IC50
Text: Example 3. Phosphorylated STAT6 (pSTAT6) Flow Cytometry Assay in Human A549 Cells
Phosphorylation of STAT6 in human A549 cells was quantitatively measured using flow cytometry technology.

IC50 [nM]	Compound
< 100	COc1cc(F)cnc1N1CCN(C(=O)c2cc3c([C@@H]4CCCN4C)cc(C4=CCCN(C(=O)CCn5ccnn5)C4)c(F)c3[nH]2)CC1 (single isomer, unassigned) [Example I-813]

Same assay, conditions: listed as I-391, read-out: STAT6 IL4 pSTAT6 assay in A549 cells: Average IC50

IC50 [nM]	Compound
< 100	COc1cc(F)cnc1N1CCN(C(=O)c2cc3c([C@H]4CCCN4C)cc(C4=CCCN(C(=O)CCn5ccnn5)C4)c(F)c3[nH]2)CC1 (single isomer, unassigned) [Example I-814]

Same assay, conditions: read-out: STAT6 IL4 pSTAT6 assay in A549 cells: Average IC50

IC50 [nM]	Compound
1000 to 10000	CCc1ccncc1-c1cc(C2=CCCC(C(=O)O)C2)c(F)c2[nH]c(C(=O)N3CCN(c4ncc(F)cc4OC)CC3)cc12 (centres unmarked) [Example I-1205]
< 100	COc1ccccc1-c1cc(C2=CCCN(C(=O)CCn3ccnn3)C2)c(F)c2[nH]c(C(=O)N3CCOCC3)cc12 [Example I-985]
> 100000	COc1cc(F)cnc1N1CCN(C(=O)c2cc3c([C@@H]4CCCN4C)cc(C4=CCCN(C(=O)CCn5ccnn5)C4)c(F)c3[nH]2)CC1 (single isomer, unassigned) [Example I-813]
< 100	COc1ccccc1-c1cc(C2=CCCN(C(=O)CCn3ccnn3)C2)c(F)c2[nH]c(C(=O)N3CCN(c4cccn(C)c4=O)CC3)cc12 [Example I-1021]
< 100	CN(C)C(=O)c1cc2cc(C3=CCCN(C(=O)CCn4ccnn4)C3)cc(-c3ccc(C(F)(F)F)cc3O)c2o1 [Example I-1073]
< 100	CN1CCN(c2ccc(-c3cc(C4=CCCN(C(=O)CCn5ccnn5)C4)cc4cc(C(=O)N(C)C)oc34)cn2)CC1 [Example I-1087]
100 to 1000	COc1ccccc1-c1cc(C2=CCCN(C(C)=O)C2)cc2[nH]c(C(=O)N(C)C)cc12 [Example I-1091]
< 100	COc1ccccc1-c1cc(C2=CCCN(C(=O)CCn3ccnn3)C2)c(F)c2[nH]c(C(=O)N3CCc4ncccc43)cc12 [Example I-974]
1000 to 10000	COc1ccccc1-c1cc(C2=CCCN(C(=O)CCn3ccnn3)C2)c(F)c2[nH]c(C(=O)N3CC4CCN(Cc5ccccc5)C4C3)cc12 (centres unmarked) [Example I-987]
100 to 1000	COc1ccc(C)cc1-c1cc(C2=CCCN(C(=O)C3Cc4ccccc4CN3C=O)C2)cc2cc(C(=O)N(C)C)oc12 (centres unmarked) [Example I-1197]
100 to 1000	CN(C)C(=O)c1cc2ccc(C3=CCCN(C(=O)CCc4ccno4)C3)cc2[nH]1 [Example I-829]
< 100	COc1ccccc1-c1cc(C2=CCCN(C(=O)CCn3ccnn3)C2)c(F)c2[nH]c(C(=O)N3CCN(c4cc(F)c(F)c5ccc(C)nc45)CC3)cc12 [Example I-907]
< 100	CCS(=O)(=O)N1CCN(C(=O)c2cc3c(-c4ccccc4OC)cc(C4=CCCN(C(=O)CCn5ccnn5)C4)c(F)c3[nH]2)CC1 [Example I-980]
< 100	CCOCc1cc(F)ccc1-c1cc(C2=CCCN(C(=O)CCn3ccnn3)C2)c(F)c2[nH]c(C(=O)N3CCN(c4ncc(F)cc4OC)CC3)cc12 [Example I-1125]
< 100	COc1ccccc1-c1cc(C2=CCCN(C(=O)CCn3ccnn3)C2)c(F)c2[nH]c(C(=O)N3CCC(OC4CCC4)CC3)cc12 [Example I-984]
100 to 1000	CCc1ccc(-c2cc(C(=O)N3Cc4cnn(CC)c4C3)cc3cc(C4=CCCN(C(C)=O)C4)n(CC4CC4)c23)c(C)n1 [Example I-1046]
100 to 1000	CC(=O)N1CCC=C(c2cc(-c3ccc4cnn(C)c4c3)c3cc(C(=O)N(C)C)[nH]c3c2F)C1 [Example I-882]
< 100	COc1ccccc1-c1cc(C2=CCCN(C(=O)CCn3ccnn3)C2)c(F)c2[nH]c(C(=O)N3CCN(c4ncccn4)C[C@@H]3C)cc12 [Example I-995]
> 100000	CCc1ccncc1-c1cc(C2=CCC[C@H](C(=O)O)C2)c(F)c2[nH]c(C(=O)N3CCN(c4ncc(F)cc4OC)CC3)cc12 (single isomer, unassigned) [Example I-809]
< 100	CN(C)C(=O)c1cc2cc(C3=CCCN(C(=O)CCn4ccnn4)C3)cc(-c3ccc4cncnc4c3)c2o1 [Example I-1089]
< 100	COc1cc2ncnc(N3CCN(C(=O)c4cc5c(-c6ccccc6OC)cc(C6=CCCN(C(=O)CCn7ccnn7)C6)c(F)c5[nH]4)CC3)c2cc1O [Example I-955]
> 100000	CCOC(=O)C(=O)N1CCC=C(c2cc3cc(C(=O)N4Cc5cnn(CC)c5C4)cc(-c4ccc(CC)nc4C)c3n2CC2CC2)C1 [Example I-799]
< 100	COc1c(F)cccc1-c1cc(C2=CCCN(C(=O)CCn3ccnn3)C2)cc2cc(C(=O)N(C)C)oc12 [Example I-1076]
> 100000	COc1cc(F)cnc1N1CCN(C(=O)c2cc3c([C@H]4CCCN4C)cc(C4=CCCN(C(=O)CCn5ccnn5)C4)c(F)c3[nH]2)CC1 (single isomer, unassigned) [Example I-814]
< 100	CCC1=C(c2cc(C3=CCCN(C(=O)CCn4ccnn4)C3)c(F)c3[nH]c(C(=O)N4CCN(c5ncc(F)cc5OC)CC4)cc23)CN(C)C1 [Example I-782]
1000 to 10000	COCc1cccc(NC(=O)c2cc3c(-c4ccccc4OC)cc(C4=CCCN(C(=O)CCn5ccnn5)C4)c(F)c3[nH]2)c1 [Example I-1028]

The next lines start with the compound.

Compound	IC50 [nM]
CCc1ccncc1-c1cc(C2=CCCN(C(=O)CCn3cccn3)C2)c(F)c2[nH]c(C(=O)N3CCN(c4ncc(OC)cc4OC)CC3)cc12 [Example I-683]	< 100
COc1cc(F)cnc1N1CCN(C(=O)c2cc3c(C4CCCCN4C)cc(C4=CCCN(C(=O)CCn5ccnn5)C4)c(F)c3[nH]2)CC1 (centres unmarked) [Example I-780]	< 100
CCc1cc(C)ncc1-c1cc(C2=CCCN(C(=O)CCn3ccnn3)C2)c(F)c2[nH]c(C(=O)N3CCN(c4ncc(F)cc4OC)CC3)cc12 [Example I-707]	10000 to 100000
COc1ccccc1-c1cc(C2=CCCN(C(=O)CCn3ccnn3)C2)c(F)c2[nH]c(C(=O)N3CCN(c4cc(C#N)ccc4OC)CC3)cc12 [Example I-356, 3-(4-(6-(1-(3-(1H-1,2,3-triazol-1-yl)propanoyl)-1,2,5,6-tetrahydropyridin-3-yl)-7-fluoro-4-(2-methoxyphenyl)-1H-indole-2-carbonyl)piperazin-1-yl)-4-methoxybenzonitrile]	< 100
CCc1cc(C)ncc1-c1cc(C2=CCCN(C(=O)CCn3ccnn3)C2)c(F)c2[nH]c(C(=O)N3CCN(c4nccnc4OC)CC3)cc12 [Example I-519]	< 100
COc1c(F)cc(F)cc1-c1cc(C2=CCCN(C(=O)CCn3ccnn3)C2)c(F)c2[nH]c(C(=O)N3CCN(c4ncccc4OC4CC4)CC3)cc12 [Example I-597]	< 100
COc1ccccc1-c1cc(C2=CCCN(C(=O)CCn3ccnn3)C2)c(F)c2[nH]c(C(=O)N3CCN(c4c(F)cccc4OC4CC4)CC3)cc12 [Example I-424]	< 100
COc1cc(F)ccc1-c1cc(C2=CCCN(C(=O)CCn3ccnn3)C2)c(F)c2[nH]c(C(=O)N3CCN(c4ncc(Cl)cc4OC)CC3)cc12 [Example I-459]	< 100
COc1ccccc1-c1cc(C2=CCCN(C(=O)CCn3ccnn3)C2)c(F)c2[nH]c(C(=O)N3CCN(c4ncccc4OC4CC4)CC3)cc12 [Example I-336]	< 100
COc1cc(F)cnc1N1CCN(C(=O)c2cc3c(-c4cccc(-c5cccnc5)c4)cc(C4=CCCN(C(=O)CCn5ccnn5)C4)c(F)c3[nH]2)CC1 [Example I-629]	< 100
COc1ccccc1-c1cc(C2=CCCN(C(=O)CCn3ccnn3)C2)c(F)c2[nH]c(C(=O)N3CCN(c4cccnc4OC)CC3)cc12 [Example I-347]	< 100
COc1cccnc1N1CCN(C(=O)c2cc3c(-c4ccc5ncccc5c4OC)cc(C4=CCCN(C(=O)CCn5ccnn5)C4)c(F)c3[nH]2)CC1 [Example I-577]	< 100
COc1ccccc1-c1cc(C2=CCCN(C(=O)CCn3ccnn3)C2)c(F)c2[nH]c(C(=O)N3CCN(c4cc5ccccc5cc4OC)CC3)cc12 [Example I-342]	< 100
COc1cnccc1-c1cc(C2=CCCN(C(=O)CCn3ccnn3)C2)c(F)c2[nH]c(C(=O)N3CCN(c4ncccc4OC4CC4)CC3)cc12 [Example I-593]	< 100
CCOc1cccnc1N1CCN(C(=O)c2cc3c(-c4cnccc4OC)cc(C4=CCCN(C(=O)CCn5ccnn5)C4)c(F)c3[nH]2)CC1 [Example I-564]	< 100
COc1ccccc1-c1cc(C2=CCCN(C(=O)CCn3ccnn3)C2)c(F)c2[nH]c(C(=O)N3CCN(c4ncc(Cl)cc4OC)CC3)cc12 [Example I-369]	< 100
COc1ccccc1N1CCN(C(=O)c2cc3c(-c4cnccc4OC(F)F)cc(C4=CCCN(C(=O)CCn5ccnn5)C4)c(F)c3[nH]2)CC1 [Example I-426]	< 100
COc1cccnc1N1CCN(C(=O)c2cc3c(-c4cccnc4OC)cc(C4=CCCN(C(=O)CCn5ccnn5)C4)c(F)c3[nH]2)CC1 [Example I-410]	> 100000
COc1ccccc1-c1cc(C2=CCCN(C(=O)CCn3ccnn3)C2)c(F)c2[nH]c(C(=O)N3CCN(c4ccccc4OC)CC3)cc12 [Example I-349]	< 100
COc1cc(F)cnc1N1CCN(C(=O)c2cc3c(-c4cncc(C5CC5)c4)cc(C4=CCCN(C(=O)CCn5ccnn5)C4)c(F)c3[nH]2)CC1 [Example I-637]	< 100
COc1cnccc1-c1cc(C2=CCCN(C(=O)CCn3ccnn3)C2)c(F)c2[nH]c(C(=O)N3CCN(c4ncccc4OC)CC3)cc12 [Example I-366]	< 100
CCc1nc(C)ccc1-c1cc(C(=O)N2CCN(c3ncc(F)cc3OC)CC2)cc2cc(C3=CCCN(C(=O)CCn4ccnn4)C3)n(CC(C)C)c12 [Example I-524]	< 100
